Data published in article PMC9411606, “Control cell migration by engineering integrin ligand assembly” (Nature Communications, 2022).
“Also recorded” adds a separate entry of the source.

Legend:
[1] = test system: integrin α3β1; test: MicroScale Thermophoresis integrin binding; design: species or system human; conditions: MST, n = 3
Excerpt: The interaction between integrins and peptide ligands in PBS was quantified by a Monolith® NT.115Pico (NanoTemper Technology, Germany) using MO. Control 1.6 software. Recombinant human integrin proteins, including alpha-3/ beta-1, alpha-5/beta-1, and alpha-6/ beta-1, were purchased from R&D Systems (USA). Recombinant integrin proteins were labeled by Monolith^TM Protein Labeling Kit RED-NHS (NanoTemper Technology) following the instruction provided by the manufacturer. The fluorescence-labeled integrin solution was mixed with peptides solution in 15 concentration gradients at a 1:1 ratio. The Monolith^TM NT.115 MST Premium Coated Capillaries (NanoTemper Technology) were applied to draw the mixed solution with the order of declining ligand concentration. Pretests were performed to ensure the protein concentration and fluorescent intensities in each tube were equal. Following that, quantitative binding affinity was measured three times.

[2] = test system: HuH-7 cells; test: MTT assay, HuH-7 cell viability; assay type: cell-based, human; conditions: HuH-7, 10-200 µM, 24, 48, 72 hr
Experimental: Huh-7 cells were seeded in 96-well plates at a density of 5 × 10^3 cells/ well. The cells were allowed to adhere by incubating at 37 °C with 5% CO2 for 12 hr. 100 μL of Cultured medium containing 10% FBS and the desired concentration of peptide replaced to each well and the cells were then incubated with the peptide solution for another 24, 48, or 72 hr. After the desired time of incubation, 10 μL of MTT (12 mM, Invitrogen) solution at a concentration of 5 mg/mL was added to each well and incubated at 37 °C for another 4 hr. The reduction reaction was terminated by adding 100 μL of 10% of SDS solution (in Milli-Q) and incubated for 12 hr to dissolve the formazan crystals formed in the cells. A Nivo multimode plate reader (PerkinElmer) was used to measure the optical density at the 570 nm wavelength of each well. All experiments were conducted in triplicate, and the results were calculated as mean ± standard deviation and presented as cell viability.

[3] = test system: integrin knockdown HuH-7 cells; test: Wound healing assay, integrin knockdown HuH-7; assay type: cell-based, human; conditions: 48 hr wound healing, 100 µM, n = 6
Experimental: Healthy cells were seeded in 96-well Image Lock plates (Essen Bioscience, UK). Each well contained 2 ×10^4 to 5 × 10^4 cells in 100 μL of complete cell culture medium. Cell monolayer with approximately 90% confluence formed after 12 hr and cells were next starved in serum-free culture medium for 12 hrs. Homogenous scratch wounds with a width of about 700 μm were made by an Essen BioScienceWound Maker. The detached cells were washed with Dulbecco’s Buffered Saline (DPBS, Gibco) 3 times. Cells were incubated with 100 μL of culture medium containing 0.5 % FBS and desired concentration of each peptide. Wound closure was monitored by an IncucyteS3 (Essen Bioscience) with a 10x objective. Images for each well were acquired every 2 hr to 8 hr for 2 days or until the wounds were closed completely. The wound healing rate was quantified by Incucyte Scratch Wound Analysis Module (Essen Bioscience). The experiments were repeated at least 3 times, and the results were presented as mean ± standard deviation of at least 3 independent experiments.
Integrin β1 shRNA plasmid (#sc-29375-SH), Integrin α3 shRNA plasmid (#sc-35684-SH), Integrin α6 shRNA plasmid (#sc-43129-SH), and control shRNA plasmid-A (#sc-108060) were purchased from Santa Cruz Biotechnology for knockdown of the target integrins. The knockdown efficiency was evaluated by western blotting.

[4] = test system: HuH-7 cells; test: Cell adhesion assay, HuH-7; assay type: cell-based, human; conditions: FFFIKLLI pre-coated dishes
Experimental: The 96-well microplates wells were coated with peptide assemblies (the concentration of FFFIKLLI was kept at 100 μM constantly) for 12 hr at 37 °C before blocked with the Blocking Buffer (2% BSA, 1 mM CaCI2 and 1 mM MnCI2 in PBS) for 1 hr at 37 °C. Cells were collected from culture dishes and suspended in the Blocking Buffer containing anti-laminin-5 (P3H9-2, MAB1947, Chemicon, 5 μg/ml), anti-fibronectin (IST-9, ab6328, Abcam, 20 μg/ml) or IgG isotype control (20 μg/ml, Abcam) before immediately seeded to the coated well (20,000 cells/well) and allowed to incubate at 37 °C for 1 h. The wells were washed for three times with the Blocking Buffer and the phase-contrast images were captured by IncucyteS3 (Essen Bioscience) with a 10× objective.

[5] = FTIR microscopy of peptide assemblies; assay type: physicochemical; conditions: freeze-dried on CaF2, aqueous assembly
Excerpt: To prepare FTIR samples, an aliquot of the peptide solution was dropped on a TS CaF2 window (5 mm diameter) (Edmund Optics, Japan) and freeze-dried using a lyophilizer (Freeze Dryer, Labconco). The CaF2 Window with assembled nanofilaments was mounted for FTIR microscopic analysis. FTIR microscopic analysis of a plain CaF2 Window served as the reference. An FTIR microscope (Nicolet iN10, Thermo Fisher Scientific) equipped with an MCT detector was used for collecting IR spectra. Spectra ranging from 4000 to 650 cm^−1 were obtained in transmission mode, aperture of 50 μm, with the resolution of 2 cm^−1. Each spectrum was derived from an average of 128 scans for each sample.

[6] = test system: Rac1 in HuH-7 cells (RaichuEV-Rac1); test: Rac1 activity by FRET; assay type: cell-based, human
Excerpt: The mGFP-paxillin expression vector was a gift from A. Kusumi (Okinawa Institute of Science and Technology, Japan). pGFP-FAK and pEGFP-vinculin were gifts from Kenneth Yamada (RRID: Addgene_50513 and Addgene¬_50515)[39], EGFP-talin, mVenus-Integrin-Beta1 and mRuby-Lifeact-7 was a gift from Michael Davidson (RRID: Addgene_54560). pEGFPC1/Gg Vinculin 1-258 (akaVD1) was a gift from S. Craig (RRID: Addgene_46270)[40]. The Rac1 FRET Sensor, pCAGGS-RaichuEV-Rac1was generously provided by K. Aoki (National Institute for Basic Biology, Japan)[41] and the RhoA FRET sensor, DORA-RhoA was generously provided by Yi I. Wu (University of Connecticut Health Center, USA)[42]. The expression vectors for Rac1/Tiam1 activation system (Lyn11-linker-FRB, YFP-FKBP, YFP-FKBP-linker-Tiam1, and pTriEx-PA-Rac1) was generously provided by T. Inoue (Johns Hopkins University, USA)[43].

FFFIKLLI [assembling ligand: FFF coupled to the N-terminus of IKLLI; self-assembles into nanofilaments]
integrin-binding affinity ([1]; PBS, integrin 2 nM, in words): highest binding affinity
integrin selectivity ([1]; integrin α3β1 vs α5β1 and α6β1, integrin 2 nM): selectively targeted integrin α3β1
cytotoxicity [2]: without inducing cytotoxicity
suppression efficacy after knockdown of α3 or β1 integrin subunit [3]: attenuated the suppression efficacy
suppression efficacy after knockdown of α6 subunit (attenuated?) [3]: did not
attached cells ([4]; IgG, n = 30): 171.2 Counts / mm2
attached cells ([4]; anti-fibronectin IST-9, n = 30): 162.2 Counts / mm2
attached cells ([4]; anti-laminin-5 P3H9-2, n = 30): 157.4 Counts / mm2
hydrogen bonding by FTIR [5]: NH-N
Rac1 activity, FRET/CFP ([6]; 12 hr, n = 50 cells, mean): 1.262
Rac1 activity ([6]; HuH-7): great inhibition; also recorded: global inhibition
